# Measured values published in patent US20240207265A1, “TREATMENT OF CNS DISEASES WITH sGC STIMULATORS” (Tisento Therapeutics Inc., priority 2021, published 2024).
# Target: T1, human α2β1 sGC isozyme (Homo sapiens, UniProt P33402+Q02153)
# T1 construct: host or cells: CHO-K1
# T1 sequence (P33402 1-732): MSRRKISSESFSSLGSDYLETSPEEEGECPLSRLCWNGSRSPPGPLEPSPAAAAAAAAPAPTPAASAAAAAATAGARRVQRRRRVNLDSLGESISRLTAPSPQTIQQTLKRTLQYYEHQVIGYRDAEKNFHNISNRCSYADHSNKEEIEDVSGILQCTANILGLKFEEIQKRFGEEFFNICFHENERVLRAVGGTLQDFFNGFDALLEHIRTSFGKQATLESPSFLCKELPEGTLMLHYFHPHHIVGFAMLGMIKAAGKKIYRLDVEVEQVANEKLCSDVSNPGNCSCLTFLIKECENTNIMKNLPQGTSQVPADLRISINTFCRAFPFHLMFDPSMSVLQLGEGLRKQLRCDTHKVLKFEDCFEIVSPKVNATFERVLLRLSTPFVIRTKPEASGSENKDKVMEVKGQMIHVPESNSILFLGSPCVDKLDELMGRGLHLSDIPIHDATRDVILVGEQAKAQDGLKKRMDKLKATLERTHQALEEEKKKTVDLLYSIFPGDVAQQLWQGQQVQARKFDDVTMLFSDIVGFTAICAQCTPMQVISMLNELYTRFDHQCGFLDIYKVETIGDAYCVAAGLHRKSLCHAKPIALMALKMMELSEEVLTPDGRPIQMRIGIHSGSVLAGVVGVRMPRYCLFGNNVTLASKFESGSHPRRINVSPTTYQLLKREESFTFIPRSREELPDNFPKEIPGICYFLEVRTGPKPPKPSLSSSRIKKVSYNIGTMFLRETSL
# T1 sequence (Q02153 1-619): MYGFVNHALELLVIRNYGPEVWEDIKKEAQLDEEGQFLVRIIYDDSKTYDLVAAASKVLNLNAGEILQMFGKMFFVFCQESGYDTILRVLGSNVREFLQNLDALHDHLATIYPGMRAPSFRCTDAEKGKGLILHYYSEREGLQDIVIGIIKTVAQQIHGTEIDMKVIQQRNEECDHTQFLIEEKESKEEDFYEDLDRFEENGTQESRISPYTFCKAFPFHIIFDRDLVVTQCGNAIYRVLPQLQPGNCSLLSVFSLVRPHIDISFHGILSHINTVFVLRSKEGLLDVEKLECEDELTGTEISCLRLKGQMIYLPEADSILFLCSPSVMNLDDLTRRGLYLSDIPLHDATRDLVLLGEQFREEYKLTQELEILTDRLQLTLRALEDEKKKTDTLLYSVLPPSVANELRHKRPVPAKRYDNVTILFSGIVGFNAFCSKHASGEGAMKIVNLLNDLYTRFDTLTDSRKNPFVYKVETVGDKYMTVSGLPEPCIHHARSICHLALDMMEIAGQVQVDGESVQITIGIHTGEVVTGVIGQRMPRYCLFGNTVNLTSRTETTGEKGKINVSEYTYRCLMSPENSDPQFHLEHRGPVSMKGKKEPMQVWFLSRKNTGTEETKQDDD
# Test: cGMP assay in CHO-K1 cells stably expressing human α2β1 sGC isozyme
# Type: cell-based
# Details: 10 μM DETA-NONOate
# Method: sGC stimulators were dissolved in DMSO as a 10 mM solution and stored at −20° C. To achieve desired test concentrations, stock concentrations were serially diluted into DMSO and then diluted to the appropriate concentration in assay buffer.
# CHO-K1 cells stably transfected with human α2β1 sGC isozyme (generated by GenScript for Ironwood) were cultured in F-12K medium (ATCC catalog #30-2004) with 10% fetal calf serum, 4 μg/mL puromycin (Gibco catalog #A11138-03) and 0.4 mg/mL of geneticin (Gibco catalog #10131-027) in a 95% humidified atmosphere containing 5% CO2 in air at 37° C. For GC activity assays, cells were seeded in 384 well poly-D-lysine coated flat bottom plates (Fisher Scientific #08-774-311) in either 50 μL or 70 μL medium at a density of either 3×10^4 cells/well or 15×10^3, respectively. Cells were incubated for 24 hours at 37° C. in a humidified chamber supplemented with 5% CO2.
# For each test concentration, the compound was diluted in 100% DMSO to 100-fold of its final assay concentration. Immediately prior to the assay, the solution was diluted 20-fold into HBSS containing calcium, magnesium, and 50 μM DETA-NONOate (5× the final assay concentration). Medium was removed and cells were washed once with 40 μL of HBSS. Cells were then incubated with 40 μL of a solution containing 0.5 mM IBMX in HBSS for 15 min at 37° C. 10 μL from the sGC stimulator/HBSS/DETA-NONOate plate was added to the cells, which were incubated for an additional 20 min at 37° C. Final DMSO concentration was 1%, final DETA-NONOate concentration was 10 μM; and final compound concentrations were 30,000 nM, 6000 nM, 1200 nM, 240 nM, 48 nM, 9.6 nM, 1.92 nM, 0.384 nM, 0.077 nM, 0.015 nM, or 0.003 nM.
# Following incubation with compound, assay buffer was removed and 50 μL of ice-cold 10% acetic acid+150 ng/mL internal standard (+3 cGMP) was added to each well. Samples were incubated on ice for 30-60 min. Following centrifugation at 4° C. for 5 min at 1000×g to pellet cell debris, the supernatant was transferred to a clean plate and the samples analyzed for cGMP content.
# Data were analyzed with a 4-parameter fit (log(agonist) vs. response-variable slope) using GraphPad Prism Software v.8. The EC50 was interpolated from the curve fit and is defined as the concentration at which the compound elicits 50% of its maximal response. When the experiment was carried out multiple times for a given compound, the geometrical mean of all experiments is reported.
row,SMILES,EC50 [nM]
1,"Oc1nc(-c2cn3ccnc3c(Cc3ccccc3)n2)ncc1F [Compound I-2, 2-(8-Benzylimidazo[1,2-a]pyrazin-6-yl)-5-fluoropyrimidin-4-ol]",100 to 1000
2,"Cc1cc(F)c(Cc2nc(-c3nccc(O)n3)cn3ccnc23)cc1F [Compound I-15, 2-(8-(2,5-difluoro-4-methylbenzyl)imidazo[1,2-a]pyrazin-6-yl)pyrimidin-4-ol]",100 to 1000
3,"Oc1nc(-c2cn3ccnc3c(Cc3cc(F)ccc3F)n2)ncc1F [Compound I-20, 5-fluoro-2-(8-(2,5-difluorobenzyl)imidazo[1,2-a]pyrazin-6-yl)pyrimidin-4-ol]",≤ 100
4,Oc1nc(-c2cn3ccnc3c(Cc3ccccc3F)n2)ncc1F [Compound I-21],≤ 100
5,Oc1nc(-c2cn3ncnc3c(Cc3ccccc3F)n2)ncc1F [Compound I-23],100 to 1000

# Continued, values first:
row,EC50 [nM],SMILES
1,≤ 100,"Oc1nc(-c2cn3ccnc3c(Cc3cccc(F)c3F)n2)ncc1F [Compound I-4, 2-(8-(2,3-Difluorobenzyl)imidazo[1,2-a]pyrazin-6-yl)-5-fluoropyrimidin-4-ol]"
2,≤ 100,Oc1nc(-c2cn3c(F)cnc3c(Cc3cc(F)ccc3F)n2)ncc1F [Compound I-5]
3,≤ 100,"Oc1nc(-c2cn3ccnc3c(Cc3cc(F)ccc3F)n2)ncc1Cl [Compound I-16, 5-chloro-2-(8-(2,5-difluorobenzyl)imidazo[1,2-a]pyrazin-6-yl)pyrimidin-4-ol]"
4,≤ 100,Cc1cc(F)c(Cc2nc(-c3ncc(F)c(O)n3)cn3c(F)cnc23)cc1F [Compound I-18]
5,≤ 100,"Cc1cc(F)c(Cc2nc(-c3ncc(F)c(O)n3)cn3ncnc23)cc1F [Compound I-19, 5-Fluoro-2-(8-(2,5-difluoro-4-methylbenzyl)-[1,2,4]triazolo[1,5-a]pyrazin-6-yl)pyrimidin-4-ol]"
